In data set [1] the test system is Leishmania donovani. The experiment in a line: Antileishmanial activity against promastigote form of Leishmania donovani MHOM/IN/80/Dd8 transfected with firefly luciferase gene assessed as parasite growth inhibition incubated for 96 hrs by Steady Glo reagent based luminescence assay. In kind it is functional, organism-based. Particulars: MHOM/IN/80/Dd8, 96 h.
Data set [2] addresses Trypanothione reductase (Leishmania donovani) (UniProt P39050). Nature of the data set: Inhibition of Leishmania donovani trypanothione reductase expressed in Escherichia coli BL21(DE3) using TS2 and NADPH as substrate at 100 uM preincubated for 5 mins followed by substrate addition by DTNB-reagent based spectrophotometric method.
Data set [3] relates to Leishmania donovani. Nature of the data set: Antileishmanial activity against Leishmania donovani MHOM/IN/80/Dd8 intracellular amastigotes transfected with firefly luciferase gene infected in mouse J774.A1 cells assessed as parasite growth inhibition incubated for 96 hrs by Steady Glo reagent based luminescence assay. It counts as functional, organism-based. Particulars: MHOM/IN/80/Dd8, J774.A1, 96 h.

The nature of data set [4]: Cytotoxicity against mouse bone marrow-derived macrophage cells assessed as reduction in cell viability measured after 24 hrs by resazurin assay. In kind it is toxicity, cell-based, BMDM. The settings on record: bone marrow-derived macrophages.
For data set [5], the system named is Leishmania infantum. Nature of the data set: Antileishmanial activity against Leishmania infantum MHOM/MA/67/ITMAP263 intracellular amastigotes infected in mouse bone marrow derived macrophage cells assessed as parasite growth inhibition measured after 24 hrs by DAPI staining based microscopic analysis. It counts as functional, organism-based. The settings on record: MHOM/MA/67/ITMAP263, Macrophage.

Data set [6] deals with Leishmania infantum. Nature of the data set: Antileishmanial activity against Leishmania infantum MCAN/ES/92/BCN83 intracellular amastigotes infected in mouse J774 macrophages assessed as inhibition of parasite growth incubated for 48 hrs by fluorometric analysis. In kind it is functional, organism-based. The settings on record: MCAN/ES/92/BCN83, J774, 48 h.
Data set [7] has as its system Leishmania infantum. Nature of the data set: Antileishmanial activity against promastigote form of Leishmania infantum MCAN/ES/92/BCN83 assessed as inhibition of parasite growth measured after 48 hrs by resazurin staining based fluorescence analysis. In kind it is functional, organism-based. Particulars: MCAN/ES/92/BCN83, 48 h.
Data set [8] relates to Leishmania amazonensis. Nature of the data set: Antileishmanial activity against Leishmania amazonensis MHOM/BR/79/Maria intracellular amastigotes infected in mouse J774 macrophages assessed as inhibition of parasite growth incubated for 48 hrs by fluorometric analysis. Particulars: J774, 48 h. It counts as functional, organism-based.
Data set [9] relates to Leishmania amazonensis. Nature of the data set: Antileishmanial activity against promastigote form of Leishmania amazonensis MHOM/BR/79/Maria assessed as inhibition of parasite growth measured after 48 hrs by resazurin staining based fluorescence analysis. It counts as functional, organism-based. (In general: The colour change of resazurin is a common sign of viable cells or microbes.)

Data set [10] relates to Leishmania donovani. The experiment in a line: Antileishmanial activity against Leishmania donovani Bob intracellular amastigotes assessed as parasite growth inhibition incubated for 72 hrs by LDH assay. In kind it is functional, organism-based.

Each structure is given as a SMILES string.

Chain of Trypanothione reductase (Leishmania donovani) (P39050 whole entry): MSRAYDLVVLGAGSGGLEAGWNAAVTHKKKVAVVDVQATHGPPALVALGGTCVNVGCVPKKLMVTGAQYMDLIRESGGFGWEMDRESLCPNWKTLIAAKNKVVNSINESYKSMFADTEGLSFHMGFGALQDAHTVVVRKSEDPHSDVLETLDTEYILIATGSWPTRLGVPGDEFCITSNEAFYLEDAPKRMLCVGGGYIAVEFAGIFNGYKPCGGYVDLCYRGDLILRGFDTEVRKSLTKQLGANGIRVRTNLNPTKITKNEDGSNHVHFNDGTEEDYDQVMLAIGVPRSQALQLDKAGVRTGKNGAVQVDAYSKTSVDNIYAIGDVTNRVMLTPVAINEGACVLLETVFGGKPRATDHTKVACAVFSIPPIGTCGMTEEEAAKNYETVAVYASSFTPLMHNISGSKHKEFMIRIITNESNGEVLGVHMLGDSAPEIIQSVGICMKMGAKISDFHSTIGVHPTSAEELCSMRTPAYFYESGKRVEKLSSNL

In general, IC50 refers to the concentration that gives 50% inhibition. For orientation: inhibition means how much of the control response was suppressed. A higher inhibition goes with a strong effect. With `C=C(C1c2[nH]c3ccccc3c2CCN1C(=O)OC(C)(C)C)N(CC(=O)NC(C)(C)C)Cc1ccc(C)cc1` (stereo unspecified), the IC50 in the data set on Leishmania donovani [1] was 60 nM. The compound also registered an inhibition in data set [2] of 53%.
Take `CCOC(=O)c1cc2c([nH]c3ccccc32)c(C(C(=O)NC(C)(C)C)N(Cc2ccc(CC)cc2)C(=O)c2ccccc2)n1` (stereo unspecified): in the data set with Leishmania donovani [3], the IC50 was 2430 nM. Further, the inhibition in data set [2] stood at 87%.
A word on the CC50: it is the concentration that lowers cell viability or growth by half. As for `CCCCCCCCNCc1ccc2c(c1)C(=O)CC(C)(C)O2`, in [4], the CC50 at 24 h stood at 40.2 µM. The concentration for half-maximal inhibition (IC50) in the data set with Leishmania infantum [5] turned out to be 24.6 µM.
Consider `FC(F)(F)c1nc2cc(Cl)c(Cl)cc2[nH]1`, for which the IC50 in the data set with Leishmania infantum [6] was found to be 15.8 µM; with Leishmania infantum [7], 8.63 µM; with Leishmania amazonensis [8], 9 µM; with Leishmania amazonensis [9] it was 4.11 µM.
Take `COC(=O)C(N)Cc1c[nH]c2ccccc12` (stereo unspecified): the IC50 in the data set with Leishmania donovani [10] is 18.2 µM.

(Values after ChEMBL document CHEMBL5096192, “Recent advancements in anti-leishmanial research: Synthetic strategies and structural activity relationships” (Eur J Med Chem, 2021).)
